Drawing on patent US20230271924A1 (published 2023), this text covers melting point for 2 compounds.

As for `CCCCCCCC(=O)Oc1cccc2[nH]cc(CCN(C)C)c12`, the melting point – broadly, the temperature of the solid-liquid transition – fell in the range of 69 to 70 °C.

`CCCCCCCCCCCCCC(=O)Oc1cccc2[nH]cc(CCN(C)C)c12` displayed a melting point of 58 to 59 °C.
